The values that follow come from patent publication US20250320184A1 (SIRONAX LTD., priority 2022, published 2025).

SMILES strings stand for the structures. Bounds are passed on as bounds.

This test deals with T1, SARM1 (50-724) (Homo sapiens, UniProt Q6SZW1).
T1 sequence (Q6SZW1 50-724): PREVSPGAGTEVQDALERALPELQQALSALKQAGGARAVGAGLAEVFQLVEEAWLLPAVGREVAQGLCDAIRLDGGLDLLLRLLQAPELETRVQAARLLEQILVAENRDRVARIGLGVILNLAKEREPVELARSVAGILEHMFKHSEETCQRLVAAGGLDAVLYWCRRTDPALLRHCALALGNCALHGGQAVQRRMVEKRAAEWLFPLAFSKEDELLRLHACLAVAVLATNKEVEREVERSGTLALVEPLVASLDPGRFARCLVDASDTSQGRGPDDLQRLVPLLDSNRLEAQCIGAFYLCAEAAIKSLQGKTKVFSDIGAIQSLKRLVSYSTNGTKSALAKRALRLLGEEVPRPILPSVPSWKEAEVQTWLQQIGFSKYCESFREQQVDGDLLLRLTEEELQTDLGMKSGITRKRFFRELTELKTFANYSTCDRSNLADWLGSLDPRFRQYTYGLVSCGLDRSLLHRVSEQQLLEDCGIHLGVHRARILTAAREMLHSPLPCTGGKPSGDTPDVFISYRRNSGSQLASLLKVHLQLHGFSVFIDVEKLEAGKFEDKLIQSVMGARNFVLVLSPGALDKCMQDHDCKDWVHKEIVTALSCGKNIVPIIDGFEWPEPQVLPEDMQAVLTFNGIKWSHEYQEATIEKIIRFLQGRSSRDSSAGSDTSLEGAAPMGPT
In words: biochemical.
Protocol: An enzymatic assay was performed in a 384-well plate using Dulbecco's phosphate-buffered saline (PBS) as the reaction buffer. […] The reaction was initiated by adding a mixture of 200 μM nicotinamide mononucleotide (NMN) as activator and 100 μM NAD^+ as substrate. After 1 h of incubation at room temperature, the reaction was terminated with 10 times volume of 70% acetonitrile, then centrifuged at 3800 rpm for 10 min.
One may read the IC50 as the concentration needed to halve the response being measured. Lower therefore signals higher potency. `CC(Nc1ccc2c(c1)C(=O)N(C(C)C(N)=O)C2(C)C)c1nc(Cl)c(Cl)s1` (mixture of isomers) [Compound 334, 2-(5-((1-(4,5-dichlorothiazol-2-yl)ethyl)amino)-1,1-dimethyl-3-oxoisoindolin-2-yl)propanamide] gave an IC50 of less than 0.1 µM.

Consider `Cc1c2ccc(NC(C)c3nc(Cl)c(Cl)s3)cc2nn1C1CC(O)C1` (mixture of isomers) [Compound 339, 3-(6-((1-(4,5-dichlorothiazol-2-yl)ethyl)amino)-3-methyl-2H-indazol-2-yl)cyclobutan-1-ol], for which the IC50 was less than 0.1 µM.

In turn, `CC(Nc1cc(F)c2ncn(C3CC(O)C3)c(=O)c2c1)c1cncc(Cl)c1Cl` (mixture of isomers) [Compound 348, 6-((1-(4,5-dichloropyridin-3-yl)ethyl)amino)-8-fluoro-3-(3-hydroxycyclobutyl)quinazolin-4(3H)-one] displayed an IC50 of less than 0.1 µM.

As to `O=C1NCCc2ccc(NS(=O)(=O)N3CCCC4CCCCC43)cc21` (mixture of isomers) [Example 170, N-(1-oxo-1,2,3,4-tetrahydroisoquinolin-7-yl)octahydroquinoline-1(2H)-sulfonamide], the half-maximal inhibitory concentration (IC50) is more than 1 µM.

For `O=C1NCCc2ccc(NS(=O)(=O)N3CCCC4CCCC43)cc21` (mixture of isomers) [Example 171], the half-inhibitory concentration (IC50) was in the range of 0.1 to 0.5 µM.

On to `CC1CCC(C)N(S(=O)(=O)Nc2ccc3c(c2)C(=O)NCC3)C1` (mixture of isomers) [Example 172, 2,5-dimethyl-N-(1-oxo-1,2,3,4-tetrahydroisoquinolin-7-yl)piperidine-1-sulfonamide], for which the IC50 was more than 1 µM.

`Cc1n[nH]c(=O)c2cc(NC(CC(O)CCO)c3nc(Cl)c(Cl)s3)ccc12` (mixture of isomers) [Example 293, 7-((1-(4,5-dichlorothiazol-2-yl)-3,5-dihydroxypentyl)amino)-4-methylphthalazin-1(2H)-one] had an IC50 of 0.1 to 0.5 µM.

The molecule `CCC1CCCCN1S(=O)(=O)Nc1ccc2c(c1)C(=O)NCC2` (racemic) [Compound 48, 2-ethyl-N-(1-oxo-1,2,3,4-tetrahydroisoquinolin-7-yl)piperidine-1-sulfonamide] came in with an IC50 of more than 1 µM.

The molecule `O=S(=O)(Nc1ccc2c(c1)C(O)CCC2)c1cccc(Cl)c1Cl` (racemic) [Compound 56, 2,3-dichloro-N-(8-hydroxy-5,6,7,8-tetrahydronaphthalen-2-yl)benzenesulfonamide] yielded an IC50 of less than 0.1 µM.

As for `COC(=O)C1Cc2ccc(NS(=O)(=O)c3cccc(Cl)c3Cl)cc2C(=O)N1` (racemic) [Compound 90, methyl 7-((2,3-dichlorophenyl)sulfonamido)-1-oxo-1,2,3,4-tetrahydroisoquinoline-3-carboxylate], the IC50 is 0.1 to 0.5 µM.

The molecule `CC(Nc1ccc2ccn(C)c(=O)c2c1)c1ncc(Cl)s1` (racemic) [Compound 182, 7-((1-(5-chlorothiazol-2-yl)ethyl)amino)-2-methylisoquinolin-1(2H)-one] gave a half-inhibitory concentration (IC50) of more than 1 µM.

In the case of `CC(Nc1ccc2ccn(C)c(=O)c2c1)c1cncc(Cl)c1Cl` (racemic) [Compound 184, 7-((1-(4,5-dichloropyridin-3-yl)ethyl)amino)-2-methylisoquinolin-1(2H)-one], the half-maximal inhibitory concentration (IC50) lay within 0.1 to 0.5 µM.

In the case of `CC(Nc1ccc2cc[nH]c(=O)c2c1)c1c(Cl)ccc(Cl)c1Cl` (racemic) [Compound 185, 7-((1-(2,3,6-trichlorophenyl)ethyl)amino)isoquinolin-1(2H)-one], the IC50 was less than 0.1 µM.

For `CC(Nc1ccc2ccn(CC3CC3)c(=O)c2c1)c1cccc(Cl)c1Cl` (racemic) [Compound 186, 2-(cyclopropylmethyl)-7-((1-(2,3-dichlorophenyl)ethyl)amino)isoquinolin-1(2H)-one], the IC50 lay within 0.1 to 0.5 µM.

`CC(Nc1ccc2cc[nH]c(=O)c2c1)c1nc(Cl)c(Cl)s1` (racemic) [Compound 187, 7-((1-(4,5-dichlorothiazol-2-yl)ethyl)amino)isoquinolin-1(2H)-one]: the IC50 is less than 0.1 µM.
